The supplement of paper PMC10307832

Assays:
Assay in all cases: relative viability (nuclei count vs DMSO), 5 days (fraction); higher = more cells survive
Ispinesib + Navitoclax = compound: Cc1ccc(C(=O)N(CCCN)[C@@H](c2nc3cc(Cl)ccc3c(=O)n2Cc2ccccc2)C(C)C)cc1 [Ispinesib] + CC1(C)CCC(c2ccc(Cl)cc2)=C(CN2CCN(c3ccc(C(=O)NS(=O)(=O)c4ccc(N[C@H](CCN5CCOCC5)CSc5ccccc5)c(S(=O)(=O)C(F)(F)F)c4)cc3)CC2)C1 [Navitoclax] (partner 0.5 µM)
How it was run: (§1)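 Relative viability divides the nuclei count in treated wells by that in vehicle wells. Lung cancer cell lines were seeded in 1536-well plates, dosed by pin tool the next day, and fixed and stained after 5 days in one step with final 0.05% Triton X-100, 1% formaldehyde and 1 ug/ml Hoechst. Dosing was a single drug or a fixed anchor-drug dose plus five library-drug doses (not always all listed) in √10 steps, and values are medians of duplicate plates imaged at 4×.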

Ispinesib + Linsitinib = compound: Cc1ccc(C(=O)N(CCCN)[C@@H](c2nc3cc(Cl)ccc3c(=O)n2Cc2ccccc2)C(C)C)cc1 [Ispinesib] + C[C@]1(O)C[C@@H](c2nc(-c3ccc4ccc(-c5ccccc5)nc4c3)c3c(N)nccn32)C1 [Linsitinib] (partner 1 µM)
How it was run: as §1

Ispinesib + Dasatinib = compound: Cc1ccc(C(=O)N(CCCN)[C@@H](c2nc3cc(Cl)ccc3c(=O)n2Cc2ccccc2)C(C)C)cc1 [Ispinesib] + Cc1nc(Nc2ncc(C(=O)Nc3c(C)cccc3Cl)s2)cc(N2CCN(CCO)CC2)n1 [Dasatinib] (partner 0.075 µM)
How it was run: as §1

Ispinesib + Phenformin = compound: Cc1ccc(C(=O)N(CCCN)[C@@H](c2nc3cc(Cl)ccc3c(=O)n2Cc2ccccc2)C(C)C)cc1 [Ispinesib] + N=C(N)NC(=N)NCCc1ccccc1 [Phenformin] (partner 250 µM)
How it was run: as §1

Cell Line	relative viability (Ispinesib + Navitoclax; first compound 0.001 µM)	relative viability (Ispinesib + Navitoclax; first compound 0.003162 µM)	relative viability (Ispinesib + Navitoclax; first compound 0.01 µM)	relative viability (Ispinesib + Navitoclax; first compound 0.03162 µM)	relative viability (Ispinesib + Navitoclax; first compound 0.1 µM)	relative viability (Ispinesib + Linsitinib; first compound 0.001 µM)	relative viability (Ispinesib + Linsitinib; first compound 0.003162 µM)	relative viability (Ispinesib + Linsitinib; first compound 0.01 µM)	relative viability (Ispinesib + Linsitinib; first compound 0.03162 µM)	relative viability (Ispinesib + Linsitinib; first compound 0.1 µM)	relative viability (Ispinesib + Dasatinib; first compound 0.001 µM)	relative viability (Ispinesib + Dasatinib; first compound 0.003162 µM)	relative viability (Ispinesib + Dasatinib; first compound 0.01 µM)	relative viability (Ispinesib + Dasatinib; first compound 0.03162 µM)	relative viability (Ispinesib + Dasatinib; first compound 0.1 µM)	relative viability (Ispinesib + Phenformin; first compound 0.001 µM)	relative viability (Ispinesib + Phenformin; first compound 0.003162 µM)	relative viability (Ispinesib + Phenformin; first compound 0.01 µM)	relative viability (Ispinesib + Phenformin; first compound 0.03162 µM)	relative viability (Ispinesib + Phenformin; first compound 0.1 µM)
PC-3 [JPC-3]	0.826	0.875	0.782	0.797	0.784	0.937	0.917	0.949	0.989	1.03	1.11	1.06	1.14	0.868	0.578	0.494	0.475	0.44	0.461	0.254
NCI-H1355	0.996	0.878	0.927	1.08	0.688	0.82	0.794	0.893	0.795	0.561	0.82	0.836	0.625	0.379	0.423	0.422	0.465	0.495	0.291	0.315
NCI-H727		0.519	0.507	0.387	0.26		0.303	0.235	0.244	0.223	0.536	0.221	0.434	0.472	0.388	0.601	0.6	0.385	0.466	0.309
NCI-H1975	1.16	1.25	1.27	1.14	0.186	1.01	0.946	1.06	0.508	0.189	0.443	0.43	0.425	0.158	0.114	0.448	0.412	0.458	0.164	0.11
NCI-H460	1.43	1.33		0.785	0.0262	1.02	0.922	1.09	0.268	0.0336	0.557	0.619	0.573	0.323	0.0386	0.557	0.579	0.559	0.0429	0.032
EPLC-272H	1.24	1.21	1.25	0.784	1.02	1.17	1.53	1.48	1.05	1.06	0.407	0.354	0.32	0.172	0.182	0.317	0.283	0.262	0.217	0.145
SK-LU-1	0.955	0.794	1.23	0.415	0.164	1.15	1.32	1.43	0.932	0.382	0.173	0.173	0.173	0.144	0.112	0.555	0.627	0.561	0.251	0.203
NCI-H322M	1.2	1.13	1.15	1.14	1.15	0.966	0.945	1.01	0.569	0.921	0.271	0.244	0.233	0.252	0.288	0.874	0.891	0.82	0.39	0.389
